# Results: PubChem BioAssay (NCI)
#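 Results reflect a 48-hour exposure of cells in 96-well plates to compound at five concentrations. At the TGI there is no net growth.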
# Assays:
# Assay in all cases: NCI anticancer screen, dose series, 48 h
# RXF 393 renal = system: RXF 393 renal
# HL-60(TB) leukemia = system: HL-60(TB) leukemia
# SR leukemia = system: SR leukemia
# MDA-MB-435 = system: MDA-MB-435
# HOP-62 NSCLC = system: HOP-62 NSCLC
# KM12 colon = system: KM12 colon
# SK-MEL-28 melanoma = system: SK-MEL-28 melanoma
# TK-10 renal = system: TK-10 renal
# IGROV1 ovarian = system: IGROV1 ovarian
# PC-3 prostate = system: PC-3 prostate
# SNB-75 CNS = system: SNB-75 CNS
# NCI-H460 lung = system: NCI-H460 lung
# A549 NSCLC = system: A549 NSCLC
# HCT-15 colon = system: HCT-15 colon
# SK-MEL-2 melanoma = system: SK-MEL-2 melanoma
# OVCAR-5 ovarian = system: OVCAR-5 ovarian
# SNB-19 CNS = system: SNB-19 CNS
# UACC-257 melanoma = system: UACC-257 melanoma
# MDA-N = system: MDA-N
# NCI/ADR-RES ovarian = system: NCI/ADR-RES ovarian
# SF-268 CNS = system: SF-268 CNS
# SW-620 colon = system: SW-620 colon
# M14 melanoma = system: M14 melanoma
# A498 renal = system: A498 renal
# NCI-H522 lung = system: NCI-H522 lung
# MOLT-4 leukemia = system: MOLT-4 leukemia
# T-47D breast = system: T-47D breast
# UACC-62 melanoma = system: UACC-62 melanoma
# COLO 205 colon = system: COLO 205 colon
# OVCAR-4 ovarian = system: OVCAR-4 ovarian
# CAKI-1 renal = system: CAKI-1 renal
# LOX IMVI melanoma = system: LOX IMVI melanoma
# 786-0 renal = system: 786-0 renal
# K-562 leukemia = system: K-562 leukemia
# ACHN renal = system: ACHN renal
# SK-OV-3 ovarian = system: SK-OV-3 ovarian
# SF-295 CNS = system: SF-295 CNS
# MALME-3M melanoma = system: MALME-3M melanoma
# RPMI-8226 leukemia = system: RPMI-8226 leukemia
# DU-145 prostate = system: DU-145 prostate
# SF-539 CNS = system: SF-539 CNS
# NCI-H23 lung = system: NCI-H23 lung
# MDA-MB-231 breast = system: MDA-MB-231 breast
# U251 CNS = system: U251 CNS
# EKVX NSCLC = system: EKVX NSCLC
# OVCAR-8 ovarian = system: OVCAR-8 ovarian
# SN12C renal = system: SN12C renal
# HCT-116 colon = system: HCT-116 colon
# SK-MEL-5 melanoma = system: SK-MEL-5 melanoma
# NCI-H226 lung = system: NCI-H226 lung
# HT29 colon = system: HT29 colon
# HOP-92 NSCLC = system: HOP-92 NSCLC
# UO-31 renal = system: UO-31 renal
# MCF7 breast = system: MCF7 breast
# BT-549 breast = system: BT-549 breast
# HS 578T breast = system: HS 578T breast
# OVCAR-3 ovarian = system: OVCAR-3 ovarian
# CCRF-CEM leukemia = system: CCRF-CEM leukemia
# HCC-2998 colon = system: HCC-2998 colon
compound,measurement,setting,value
CCC(C(=O)c1cccs1)C(O)(C(F)(F)F)C(F)(F)F (configuration not stated),TGI,RXF 393 renal,> 100 µM
same,TGI,HL-60(TB) leukemia,> 100 µM
same,TGI,SR leukemia,> 100 µM
same,TGI,MDA-MB-435,> 100 µM
same,TGI,HOP-62 NSCLC,> 100 µM
same,TGI,KM12 colon,> 100 µM
same,TGI,SK-MEL-28 melanoma,> 100 µM
same,TGI,TK-10 renal,> 100 µM
same,TGI,IGROV1 ovarian,> 100 µM
same,TGI,PC-3 prostate,> 100 µM
same,TGI,SNB-75 CNS,> 100 µM
same,TGI,NCI-H460 lung,> 100 µM
same,TGI,A549 NSCLC,> 100 µM
same,TGI,HCT-15 colon,> 100 µM
same,TGI,SK-MEL-2 melanoma,> 100 µM
same,TGI,OVCAR-5 ovarian,> 100 µM
same,TGI,SNB-19 CNS,> 100 µM
same,TGI,UACC-257 melanoma,> 100 µM
same,TGI,MDA-N,> 100 µM
same,TGI,NCI/ADR-RES ovarian,> 100 µM
same,TGI,SF-268 CNS,> 100 µM
same,TGI,SW-620 colon,> 100 µM
same,TGI,M14 melanoma,> 100 µM
same,TGI,A498 renal,> 100 µM
same,TGI,NCI-H522 lung,> 100 µM
same,TGI,MOLT-4 leukemia,> 100 µM
same,TGI,T-47D breast,> 100 µM
same,TGI,UACC-62 melanoma,> 100 µM
same,TGI,COLO 205 colon,> 100 µM
same,TGI,OVCAR-4 ovarian,> 100 µM
same,TGI,CAKI-1 renal,> 100 µM
same,TGI,LOX IMVI melanoma,> 100 µM
same,TGI,786-0 renal,> 100 µM
same,TGI,K-562 leukemia,> 100 µM
same,TGI,ACHN renal,> 100 µM
same,TGI,SK-OV-3 ovarian,> 100 µM
same,TGI,SF-295 CNS,> 100 µM
same,TGI,MALME-3M melanoma,> 100 µM
same,TGI,RPMI-8226 leukemia,> 100 µM
same,TGI,DU-145 prostate,> 100 µM
same,TGI,SF-539 CNS,> 100 µM
same,TGI,NCI-H23 lung,> 100 µM
same,TGI,MDA-MB-231 breast,> 100 µM
same,TGI,U251 CNS,> 100 µM
same,TGI,EKVX NSCLC,> 100 µM
same,TGI,OVCAR-8 ovarian,> 100 µM
same,TGI,SN12C renal,> 100 µM
same,TGI,HCT-116 colon,> 100 µM
same,TGI,SK-MEL-5 melanoma,> 100 µM
same,TGI,NCI-H226 lung,> 100 µM
same,TGI,HT29 colon,> 100 µM
same,TGI,HOP-92 NSCLC,> 100 µM
same,TGI,UO-31 renal,> 100 µM
same,TGI,MCF7 breast,> 100 µM
same,TGI,BT-549 breast,> 100 µM
same,TGI,HS 578T breast,> 100 µM
same,TGI,OVCAR-3 ovarian,> 100 µM
CC(=O)c1cccc(Nc2c3ccccc3nc3occc23)c1,TGI,RXF 393 renal,6.73 µM
same,TGI,HL-60(TB) leukemia,12.4 µM
same,TGI,SR leukemia,> 100 µM
same,TGI,MDA-MB-435,2.85 µM
same,TGI,HOP-62 NSCLC,20.6 µM
same,TGI,KM12 colon,52.6 µM
same,TGI,SK-MEL-28 melanoma,7.97 µM
same,TGI,TK-10 renal,94.1 µM
same,TGI,IGROV1 ovarian,9.58 µM
same,TGI,PC-3 prostate,> 100 µM
same,TGI,NCI-H460 lung,> 100 µM
same,TGI,A549 NSCLC,> 100 µM
same,TGI,HCT-15 colon,> 100 µM
same,TGI,SK-MEL-2 melanoma,11.4 µM
same,TGI,OVCAR-5 ovarian,> 100 µM
same,TGI,SNB-19 CNS,> 100 µM
same,TGI,UACC-257 melanoma,25.5 µM
same,TGI,MDA-N,> 100 µM
same,TGI,NCI/ADR-RES ovarian,6.47 µM
same,TGI,SF-268 CNS,> 100 µM
same,TGI,M14 melanoma,24.4 µM
same,TGI,A498 renal,74.7 µM
same,TGI,NCI-H522 lung,4.62 µM
same,TGI,MOLT-4 leukemia,51.6 µM
same,TGI,T-47D breast,28 µM
same,TGI,UACC-62 melanoma,27.7 µM
same,TGI,CCRF-CEM leukemia,18.8 µM
same,TGI,COLO 205 colon,29.1 µM
same,TGI,HCC-2998 colon,25.2 µM
same,TGI,OVCAR-4 ovarian,6.67 µM
same,TGI,CAKI-1 renal,8.82 µM
same,TGI,LOX IMVI melanoma,> 100 µM
same,TGI,786-0 renal,27.6 µM
same,TGI,K-562 leukemia,> 100 µM
same,TGI,ACHN renal,> 100 µM
same,TGI,SK-OV-3 ovarian,36 µM
same,TGI,SF-295 CNS,44 µM
same,TGI,MALME-3M melanoma,27.6 µM
same,TGI,RPMI-8226 leukemia,15.9 µM
same,TGI,DU-145 prostate,> 100 µM
same,TGI,SF-539 CNS,7.63 µM
same,TGI,NCI-H23 lung,18.2 µM
same,TGI,MDA-MB-231 breast,67.7 µM
same,TGI,U251 CNS,> 100 µM
same,TGI,EKVX NSCLC,> 100 µM
same,TGI,OVCAR-8 ovarian,> 100 µM
same,TGI,SN12C renal,> 100 µM
same,TGI,HCT-116 colon,18.4 µM
same,TGI,SK-MEL-5 melanoma,23 µM
same,TGI,NCI-H226 lung,> 100 µM
same,TGI,HT29 colon,8.46 µM
same,TGI,HOP-92 NSCLC,62.2 µM
same,TGI,UO-31 renal,> 100 µM
same,TGI,MCF7 breast,> 100 µM
same,TGI,BT-549 breast,54.3 µM
same,TGI,HS 578T breast,35.3 µM
same,TGI,OVCAR-3 ovarian,5.99 µM
CCN(CC)CCOc1ccc(N2Cc3ccccc3C2=O)cc1,TGI,RXF 393 renal,> 10 µM
same,TGI,HL-60(TB) leukemia,> 10 µM
same,TGI,SR leukemia,> 10 µM
same,TGI,MDA-MB-435,> 10 µM
same,TGI,HOP-62 NSCLC,> 10 µM
same,TGI,SK-MEL-28 melanoma,> 10 µM
same,TGI,TK-10 renal,> 10 µM
same,TGI,IGROV1 ovarian,> 10 µM
same,TGI,PC-3 prostate,> 10 µM
same,TGI,SNB-75 CNS,> 10 µM
same,TGI,NCI-H460 lung,> 10 µM
same,TGI,A549 NSCLC,> 10 µM
same,TGI,HCT-15 colon,> 10 µM
same,TGI,SK-MEL-2 melanoma,> 10 µM
same,TGI,OVCAR-5 ovarian,> 10 µM
same,TGI,SNB-19 CNS,> 10 µM
same,TGI,UACC-257 melanoma,> 10 µM
same,TGI,MDA-N,> 10 µM
same,TGI,NCI/ADR-RES ovarian,> 10 µM
same,TGI,SF-268 CNS,> 10 µM
same,TGI,SW-620 colon,> 10 µM
same,TGI,M14 melanoma,> 10 µM
same,TGI,A498 renal,> 10 µM
same,TGI,NCI-H522 lung,> 10 µM
same,TGI,MOLT-4 leukemia,> 10 µM
same,TGI,T-47D breast,> 10 µM
same,TGI,UACC-62 melanoma,> 10 µM
same,TGI,CCRF-CEM leukemia,> 10 µM
same,TGI,COLO 205 colon,> 10 µM
same,TGI,HCC-2998 colon,> 10 µM
same,TGI,OVCAR-4 ovarian,> 10 µM
same,TGI,CAKI-1 renal,> 10 µM
same,TGI,LOX IMVI melanoma,> 10 µM
same,TGI,786-0 renal,> 10 µM
same,TGI,K-562 leukemia,> 10 µM
same,TGI,ACHN renal,> 10 µM
same,TGI,SK-OV-3 ovarian,> 10 µM
same,TGI,SF-295 CNS,> 10 µM
same,TGI,MALME-3M melanoma,> 10 µM
same,TGI,RPMI-8226 leukemia,> 10 µM
same,TGI,DU-145 prostate,> 10 µM
same,TGI,SF-539 CNS,> 10 µM
same,TGI,NCI-H23 lung,> 10 µM
same,TGI,MDA-MB-231 breast,> 10 µM
same,TGI,U251 CNS,> 10 µM
same,TGI,EKVX NSCLC,> 10 µM
same,TGI,OVCAR-8 ovarian,> 10 µM
same,TGI,SN12C renal,> 10 µM
same,TGI,HCT-116 colon,> 10 µM
same,TGI,SK-MEL-5 melanoma,> 10 µM
same,TGI,NCI-H226 lung,> 10 µM
same,TGI,HT29 colon,> 10 µM
same,TGI,HOP-92 NSCLC,> 10 µM
same,TGI,UO-31 renal,> 10 µM
same,TGI,MCF7 breast,> 10 µM
same,TGI,BT-549 breast,> 10 µM
same,TGI,HS 578T breast,> 10 µM
same,TGI,OVCAR-3 ovarian,> 10 µM
